Laboratory results published in patent publication US11278525B1, “Further molecules, compositions and methods for modulation of SIRT6” (SirTLab Corporation, priority 2017, dated 2022).

Columns and labels:
SIRT6 [1] = target: T1, SIRT6 (Homo sapiens, UniProt Q8N6T7); assay: SIRT6 enzymatic activity assay with fluorophore (AMC)-labeled Lysin-myristoylated histone H3 peptide (de-myristoylation, trypsin release); format: biochemical; set-up: six-histidine tag; made in house; host or cells: Escherichia coli BL21; conditions: for % activity 20 uM: compound 20 uM; for % activity 20 uM / % activity Max. conc. 100 uM: percentage of signal increase relative to control wells, Tables 1-2; for % activity Max. conc. 100 uM: compound 100 uM; for % Activity: amount tested 20 uM, Example 5, Table 9
Description: Human recombinant SIRT6 (sequence identifier: CAG33481.1; GI:4814651) was expressed in large scale in Escherichia coli strain BL21 as a six-histidine-tagged protein, after transformation of the expression plasmid pET28-SIRT6. The SIRT6 enzyme was purified from the bacteria culture broth in a two-step strategy. The first purification step was carried out by cation exchange chromatography on a HiTrap CM-Sepharose column (GE Healthcare) using an FPLC system. The second purification step was performed by immobilized metal ion affinity chromatography (IMAC) using a cobalt affinity column (Clontech).
The enzymatic activity assay is carried out in 96 or 384-well microplates using the purified recombinant SIRT6 and a fluorophore-labeled peptide substrate: 7-amino-4-methylcoumarin (AMC) that is quenched through conjugation to the C-terminal end of a Lysin-myristoylated histone H3 peptide. The activity assay procedure requires two steps, both performed in the same microplate. In the first step, the substrate is incubated with the purified SIRT6 protein along with the co-substrate nicotinamide adenine dinucleotide (NAD+). Upon de-myristoylation, the liberated ε-amino group of the lysine becomes a trypsin substrate. Treatment with trypsin in the second step releases the fluorophore resulting in an increase in fluorescence. Fluorescence intensity is measured using a fluorescent plate reader (excitation and emission at 370 nm and 450 nm, respectively). The fluorescence signal is directly proportional to SIRT6 enzymatic activity.
In the primary screening, compounds from a library (ChemDiv Inc.) were tested at a single concentration of 20 micromolar for their potential to modulate SIRT6 enzymatic activity. The assay was carried out in 384-well black well plates and all liquid handling was done using a robotic liquid handler. Purified recombinant SIRT6 (1 micromolar) was pre-incubated with each compound (or DMSO in control wells) for 15 minutes at room temperature. The first stage of the assay was initiated by adding a ‘substrate solution’ containing the myristoylated histone H3 peptide and NAD+(for final concentrations of 25 micromolar and 20 micromolar, respectively). After one hour incubation at 37° C., a Trypsin solution (6 mg/mL) was added for 30 minutes at room temperature. Fluorescence intensity was measured using a fluorescent plate reader (Tecan) with excitation at 370 nm and emission at 450 nm. The effect of each tested compound was evaluated by the change in the fluorescence intensity compared to control wells. […] To validate the primary screening results, each of the primary “hits” was re-tested, first at concentration of 20 micromolar in duplicates and later at a serial dilution ranging from 100 to 0.2 micromolar in triplicates.
Results of Assay—The results of the assay are given below in Tables 1-3.
Additional molecules were tested according to the methods and materials of Example 1. The amount tested was 20 uM for each molecule.

SIRT6 [2] = target: T1, SIRT6; assay: Secondary validation assays: HPLC deacylation, fluorometric deacetylation, in vitro histone deacetylation; format: biochemical; conditions: values only in FIGS. 1-3
Description: The activating effect of three compounds (ChemDiv ID E677-1326, E677-0945 and D715-0284) for SIRT6 was validated by conducting the following secondary assays. As previously described, D715-0284 is a stereoisomer of molecule 768382-41-8.
1. HPLC deacylation assay. SIRT6 was incubated with compounds and myristoyl-lysine peptide (corresponding to TNF-alpha sequence) at 37° C. The deacylation reactions were analyzed by reversed phase high-performance liquid chromatography on Kinetex C18 column by monitoring the formation of the deacylated product at 214 nm. […] Equally diluted DMSO served as control.
2. Fluorometric deacetylation assay. SIRT6 was incubated with compounds and fluorophore-labelled acetyl-lysine peptide (corresponding to histone H3 sequence) at 37° C. […] Results are expressed as a percentage of DMSO—treated control.
3. In vitro histone deacetylation assay. Chromatin was purified from HEK293T cells by two steps of lysis (with Nonidet P-40 lysis buffer). SIRT6 was incubated with chromatin proteins and the reaction mixture is then used for Western blot analysis. […] SIRT6 (0.5 μM) was incubated with chromatin fractions isolated from HEK293T cells in the presence of 10 micromolar NAD+ and compound D715-0284 or DMSO (control) at 37° C.

T1 sequence (Q8N6T7 whole entry): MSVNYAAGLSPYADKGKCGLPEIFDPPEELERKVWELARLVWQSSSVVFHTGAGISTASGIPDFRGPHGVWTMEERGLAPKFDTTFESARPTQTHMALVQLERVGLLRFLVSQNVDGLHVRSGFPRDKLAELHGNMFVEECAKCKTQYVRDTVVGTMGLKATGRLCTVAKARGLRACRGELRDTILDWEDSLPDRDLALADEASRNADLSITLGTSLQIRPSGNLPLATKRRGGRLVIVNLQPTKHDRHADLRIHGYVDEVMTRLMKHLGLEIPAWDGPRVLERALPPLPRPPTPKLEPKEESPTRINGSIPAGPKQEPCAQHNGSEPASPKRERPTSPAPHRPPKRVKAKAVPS

% activity 20 uM (SIRT6 [1])	% activity Max. conc. 100 uM (SIRT6 [1])	activating effect for SIRT6 in secondary assays (in words) (SIRT6 [2])	% Activity (SIRT6 [1])	Compound
263%	255%	validated		Cc1cccc2sc(N(CCCN(C)C)C(=O)CCOc3ccccc3)nc12 [E677-0945]
287%	252%	validated		CN(C)CCCN(C(=O)CCOc1ccccc1)c1nc2c(F)cccc2s1 [E677-1326]
			80%	CCOC(=O)CCc1c(C)c2ccc(OC(=O)c3cccc(OC)c3)c(C)c2oc1=O [Y041-1765]
			21%	CCCCCCc1c(C)c2cc3c(-c4ccc(F)cc4)coc3c(C)c2oc1=O [Y041-6500]
